Experimental data taken from patent publication US9975853B2, “Tetrahydroisoquinolinone derivatives and their use in the inhibition of the HSP70 protein” (Julius-Maximilians-Universitaet Wuerzburg, priority 2014, dated 2018).
“Also recorded” adds a separate entry of the source.

Key:
[1] = target: T1, HSP73 (Homo sapiens, UniProt P11142); assay: Western blot analysis of HSP73 expression in INA-6 cells; type: cell-based; conditions: INA-6, 0.6 μM, with Z-VAD-FMK 50 μM
T1 construct: endogenous in cells; host or cells: INA-6 multiple myeloma cells
Procedure: (§1) Western Blot Analysis. Protein expression levels were determined with Western blotting procedures (M. Chatterjee, et al., Blood 2002, 100, 3311-3318). Following separation by SDS-PAGE, proteins were transferred onto nitrocellulose membranes (Schleicher & Schuell, Dassel, Germany) and stained with antibodies against Hsp72, Hsp73, Hsp90 (all from Enzo Life Science, Lörrach, Germany), AIF, lamin A, caspases 9 and 3, PARP (all from Santa Cruz, Heidelberg, Germany). An anti-α tubulin antibody (Sigma, Deisenhofen, Germany) was employed to assess equal loading. Secondary antibodies used were anti-rat (Enzo Life Science), anti-rabbit and anti-mouse (both from GE Healthcare, Little Chalfont, UK). […] The heat shock proteins HSP72 and HSP73 critically interact with HSP90 in order to mediate an essential chaperone function for a multitude of proteins including various signaling intermediates. According to an established HSP72/73-dependent client protein signature and its role for survival in MM, the proposed anti-HSP72/73 effect of trans-7b in the INA-6 multiple myeloma (MM) cell line model was evaluated. […] Lysates were cleared by centrifugation, measured by quantitative protein assay (Bio-Rad, München, Germany) and subjected to SDS gel electrophoresis. […]

[2] = test system: HSP70/HSP90 multi-chaperone client proteins; assay: Western blot analysis of HSP70/HSP90 chaperone-dependent signaling intermediates and substrates in INA-6 cells; type: cell-based, human; conditions: INA-6, 0.6 μM
Procedure: as §1

[3] = test system: apoptosis-inducing factor (AIF); assay: Apoptosis assay: nuclear translocation of AIF in INA-6 cells (Western blot); type: cell-based, human; conditions: INA-6, 0.6 μM, 8 hours, nuclear pellets
Procedure: Apoptosis Assays. Hsp70-dependent prevention of apoptosis was investigated by analyses of the apoptosis-inducing factors (AIF) and of the caspases 9 and 3 in INA-6 cells. INA-6 cells were treated with 0.6 μM of compound trans-7b for 8 hours prior to analyze nuclear translocation of AIF. Staining of the nuclear protein lamin A was used as a loading control. […] Analysis of cleavage of the bona fide caspase substrate PARP served as a control for caspase activation. Co-treatment with the pan-caspase inhibitor Z-VAD-FMK (50 μM) was employed as another specificity control.
Western Blot Analysis. Protein expression levels were determined with Western blotting procedures (M. Chatterjee, et al., Blood 2002, 100, 3311-3318). Following separation by SDS-PAGE, proteins were transferred onto nitrocellulose membranes (Schleicher & Schuell, Dassel, Germany) and stained with antibodies against Hsp72, Hsp73, Hsp90 (all from Enzo Life Science, Lörrach, Germany), AIF, lamin A, caspases 9 and 3, PARP (all from Santa Cruz, Heidelberg, Germany). […] According to an established HSP72/73-dependent client protein signature and its role for survival in MM, the proposed anti-HSP72/73 effect of trans-7b in the INA-6 multiple myeloma (MM) cell line model was evaluated. […] Lysates were cleared by centrifugation, measured by quantitative protein assay (Bio-Rad, München, Germany) and subjected to SDS gel electrophoresis. […]

T1 sequence (P11142 whole entry): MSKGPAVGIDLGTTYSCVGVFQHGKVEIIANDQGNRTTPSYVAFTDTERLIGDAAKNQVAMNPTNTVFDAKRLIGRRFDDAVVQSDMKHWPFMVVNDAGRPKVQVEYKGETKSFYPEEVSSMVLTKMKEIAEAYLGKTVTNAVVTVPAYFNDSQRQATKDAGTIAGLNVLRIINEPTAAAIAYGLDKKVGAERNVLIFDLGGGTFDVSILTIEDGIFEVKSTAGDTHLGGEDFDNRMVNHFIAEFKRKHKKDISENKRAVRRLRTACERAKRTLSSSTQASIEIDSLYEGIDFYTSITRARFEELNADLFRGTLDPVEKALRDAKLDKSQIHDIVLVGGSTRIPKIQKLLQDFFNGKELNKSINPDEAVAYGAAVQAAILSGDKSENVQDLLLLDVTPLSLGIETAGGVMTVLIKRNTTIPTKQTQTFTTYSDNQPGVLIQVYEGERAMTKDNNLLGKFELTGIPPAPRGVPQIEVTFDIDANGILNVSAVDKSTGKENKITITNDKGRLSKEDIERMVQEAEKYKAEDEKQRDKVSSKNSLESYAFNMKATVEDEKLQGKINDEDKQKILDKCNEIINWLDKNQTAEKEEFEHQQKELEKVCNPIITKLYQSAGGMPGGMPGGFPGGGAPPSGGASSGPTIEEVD

Structure (SMILES): COc1ccc(C2C(C(=O)Nc3cccc(C)n3)c3ccccc3C(=O)N2c2ccccc2)cc1 (stereo not drawn) [trans-7b, trans-3-(4-Methoxyphenyl)-N-(6-methylpyridin-2-yl)-1-oxo-2-phenyl-1,2,3,4-tetrahydroisoquinoline-4-carboxamide]
- HSP73 constitutive expression level [1]: decreases; also recorded: reduced
- AKT, C-Raf, RIP, IKKα and MEK levels [2]: strongly downregulated
- p-MEK, p-ERK and pSTAT3 levels [2]: downregulated
- nuclear translocation of activated AIF [3]: shifting from the cytosol to the nucleus
